Columns and labels:
[1] = previous reports; cited from earlier work
[2] = tested on: HLA-DQA1*0201
Excerpt: The confirmatory study also offered a means to evaluate the specificity of the lapatanib effect by assessment of the letrozole-only arm in the same trial.

Row | Structure (SMILES) | type of liver injury [1] | DQA1*0201 carriage in ALT cases ([2]; letrozole-only comparator treatment arm (3/11)) [%] | DQA1*0201 carriage in ALT controls ([2]; letrozole-only comparator treatment arm (40/159)) [%] | cumulative incidence of ALT elevation, DQA1*0201 carriers compared with non-carriers ([2]; letrozole-only treated patients, FIG. 3)
1 | Cc1onc(-c2c(F)cccc2Cl)c1C(=O)N[C@@H]1C(=O)N2[C@@H]1SC(C)(C)[C@@H]2C(=O)O [flucloxacillin] | cholestatic | – | – | –
2 | CC1(C)S[C@@H]2[C@H](NC(=O)[C@H](N)c3ccc(O)cc3)C(=O)N2[C@H]1C(=O)O [Amoxicillin] | cholestatic | – | – | –
3 | N#Cc1ccc(C(c2ccc(C#N)cc2)n2cncn2)cc1 [letrozole, 4-[(4-cyanophenyl)-(1,2,4-triazol-1-yl)methyl]benzonitrile] | – | 27 | 25 | did not differ

Reference: patent US9539257B2, “Method of treating cancer” (NOVARTIS AG, priority 2009, dated 2017)
